The values below are quoted from earlier work in patent US20240197636A1, “TISSUE-SPECIFIC NUCLEIC ACID DELIVERY BY MIXED CATIONIC LIPID PARTICLES” (OMEGA THERAPEUTICS, INC., priority 2021, published 2024).

Turning to `CCCCC/C=C\C/C=C\CCCCCCCCC(CCCCCCCC/C=C\C/C=C\CCCCC)OC(=O)CCCN(C)C` [MC3, (6Z,9Z,28Z,31Z)-heptatriaconta-6,9,28,31-tetraen-19-yl 4-(dimethylamino) butanoate], the pKa (as a rule, the negative logarithm of the acid dissociation constant) is listed as 6.4.
